Experimental findings from PubChem BioAssay (NCI) are described below.

Where “and” joins values, the source holds several entries; their conditions need not be identical. Equal entries are not always repeated.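 In this assay, cells in 96-well plates receive the compound at five concentrations for 48 hours. Endpoints are linearly interpolated between the surrounding concentrations. GI50 = concentration required for 50% inhibition of growth. TGI: concentration producing complete growth inhibition.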 Some results are limits rather than exact numbers.

Among the test systems are T-47D breast; OVCAR-3 ovarian; TK-10 renal; RPMI-8226 leukemia; COLO 205 colon; U251 CNS; HCT-15 colon; DU-145 prostate; HT29 colon; HCT-116 colon.
Common to all, as to assay: growth of human tumour cells (NCI), 48 h

In the case of `O=[N+]([O-])c1cccc(C2CC(c3ccccc3)=Nc3ccccc3S2)c1` (stereo not given), the GI50 in the test on T-47D breast was 16.6 µM; with OVCAR-3 ovarian, 13.3 µM; with TK-10 renal it was 22.1 µM; in the test on RPMI-8226 leukemia, 3.41 µM; in the test with COLO 205 colon, 19.2 µM; in the test on U251 CNS it was 8.48 µM. The GI50 in the test with HCT-15 colon was 4.84 µM; in the test on DU-145 prostate it was 16.8 µM; in the test on HT29 colon it was 8.25 µM; in the test on HCT-116 colon, 2.94 µM. The TGI in the test with T-47D breast was 52.6 µM; in the test with OVCAR-3 ovarian, 26.1 µM; in the test on TK-10 renal, 42.2 µM; with RPMI-8226 leukemia, 17.3 µM; with COLO 205 colon, 41.7 µM; with U251 CNS, 21.2 µM. Besides, the TGI in the test with HCT-15 colon was found to be 18.7 µM; with DU-145 prostate it was 34.3 µM; with HT29 colon it was 24.3 µM; in the test with HCT-116 colon, 9 µM.

For `N=c1c2c(=N)n3c(nc2nc2n1-c1ccccc1Sc1ccccc1-2)sc1cc(Cl)ccc13`, the GI50 in the test on T-47D breast was 2.41 µM; with OVCAR-3 ovarian, 1.12 µM; in the test with TK-10 renal, 3.64 µM; in the test on RPMI-8226 leukemia, 0.988 µM; in the test on COLO 205 colon it was 3.72 µM; in the test on U251 CNS, 1.84 µM. The GI50 with HCT-15 colon was 2.14 µM; with DU-145 prostate, 3.55 µM; in the test on HT29 colon, 3.43 µM; in the test on HCT-116 colon, 1.86 µM. The TGI with T-47D breast was 9.5 µM; with OVCAR-3 ovarian it was 4.24 µM; in the test with TK-10 renal it was > 100 µM; in the test with RPMI-8226 leukemia it was > 100 µM; in the test with COLO 205 colon it was 32.5 µM; in the test with U251 CNS, 6.79 µM. Besides, the TGI in the test with HCT-15 colon, in the test with DU-145 prostate, with HT29 colon and in the test with HCT-116 colon was > 100 µM throughout.

Take `COc1cc2nc3cc([N+](=O)[O-])ccc3c(NCCNCC(C)(C)O)c2cc1OC`: the GI50 with T-47D breast is 0.437 µM; in the test with OVCAR-3 ovarian it was 0.373 µM; in the test with TK-10 renal it was 1.7 µM; in the test with RPMI-8226 leukemia it was 1.49 µM; with COLO 205 colon it was 0.37 µM; with U251 CNS, 0.533 µM. Further, the GI50 with HCT-15 colon is 3.4 µM; with DU-145 prostate, 0.44 µM; in the test with HT29 colon it was 0.327 µM; in the test with HCT-116 colon, 0.368 µM. The TGI in the test on T-47D breast is 2.91 µM; in the test with OVCAR-3 ovarian, 1.3 µM; with TK-10 renal, 5.43 µM; in the test on RPMI-8226 leukemia it was 5.8 µM; in the test on COLO 205 colon, 1.54 µM; in the test on U251 CNS, 2.31 µM. Besides, the TGI amounted to 12.8 µM in the test with HCT-15 colon, 2.34 µM in the test on DU-145 prostate, 1.4 µM with HT29 colon and 1.54 µM in the test with HCT-116 colon.

Consider `CN(Cc1cnc2nc(N)nc(N)c2n1)c1ccc(C(=O)NC(CCC(=O)O)C(=O)O)cc1Br` (stereo not given), for which the GI50 in the test with T-47D breast is 0.113 µM; with OVCAR-3 ovarian, < 0.01 µM; in the test with TK-10 renal, < 0.01 µM; in the test on RPMI-8226 leukemia, < 0.01 µM; in the test with COLO 205 colon, < 0.0215 µM; with U251 CNS, < 0.0134 µM. The GI50 in the test on HCT-15 colon, in the test with DU-145 prostate, in the test on HT29 colon and in the test on HCT-116 colon was < 0.01 µM in each case. The TGI is > 100 µM in the test on T-47D breast; 4.43 µM in the test with OVCAR-3 ovarian; > 100 µM in the test on TK-10 renal; > 100 µM in the test with RPMI-8226 leukemia; 17.4 µM with COLO 205 colon; > 100 µM in the test with U251 CNS. In addition, the TGI in the test on HCT-15 colon was > 100 µM; in the test on DU-145 prostate it was > 100 µM; in the test on HT29 colon, > 100 µM; in the test with HCT-116 colon, 2.42 µM.

For the molecule `CO[C@H]1C[C@@H]2CC[C@@H](C)[C@@](O)(O2)C(=O)C(=O)N2CCCC[C@H]2C(=O)O[C@H]([C@H](C)C[C@@H]2CC[C@@H](OCCO)[C@H](OC)C2)CC(=O)[C@H](C)C=C(C)[C@@H](O)[C@@H](OC)C(=O)[C@H](C)C[C@H](C)/C=C/C=C/C=C1C`, the GI50 with T-47D breast is < 0.01 µM; with OVCAR-3 ovarian, < 0.01 µM; in the test with TK-10 renal, < 0.01 µM; with RPMI-8226 leukemia, < 0.01 µM; in the test with COLO 205 colon it was 12.3 µM; with U251 CNS it was < 0.0108 µM. In addition, the results for the GI50 in the test with HCT-15 colon, in the test with HT29 colon and in the test on HCT-116 colon were < 0.0115 µM, 2.55 µM and 3.43 µM, respectively. For the same molecule, the TGI in the test with T-47D breast came out at 21.5 µM; in the test with OVCAR-3 ovarian, 16.7 µM; in the test with TK-10 renal, 19.1 µM; in the test on RPMI-8226 leukemia it was 14.1 µM; in the test with COLO 205 colon, 30.1 µM; with U251 CNS, 18.1 µM. Also, the TGI with HCT-15 colon was 18.5 µM; in the test on DU-145 prostate, 16.5 µM; with HT29 colon it was 21.1 µM; in the test on HCT-116 colon it was 18.9 µM.

As to `CCCCCCCCCCCCCC[C@@H](O)[C@H]1CC[C@H]([C@H]2CC[C@H]([C@H](O)CCCCCC[C@@H](O)CC3=C[C@H](C)OC3=O)O2)O1`, the GI50 is 2.14 µM with T-47D breast; 1.53 µM with OVCAR-3 ovarian; 2.72 µM in the test on TK-10 renal; 2.16 µM in the test with RPMI-8226 leukemia; 1.52 µM in the test on COLO 205 colon; 2.06 µM in the test with U251 CNS. The GI50 in the test with HCT-15 colon was 2.42 µM; in the test with DU-145 prostate it was > 25 µM; in the test on HT29 colon it was > 25 µM; in the test with HCT-116 colon, 2.2 µM. In addition, the TGI in the test with T-47D breast was > 25 µM; in the test with OVCAR-3 ovarian it was 3.21 µM and > 25 µM; in the test on TK-10 renal it was 8.15 µM and > 25 µM; with RPMI-8226 leukemia, > 25 µM; with COLO 205 colon, 3.06 µM and > 25 µM; in the test on U251 CNS, > 25 µM. In addition, the TGI was 5.38 µM and > 25 µM with HCT-15 colon; > 25 µM with DU-145 prostate; 3.3 µM and > 25 µM in the test on HT29 colon; > 25 µM with HCT-116 colon.

With `CC[C@H](C)[C@H](NC(=O)CN(C)C)C(=O)N(C)[C@H](C[C@@H](OC(C)=O)c1nc(C(=O)NC23CC(C(=O)OC)(C2)C3)cs1)C(C)C`, the GI50 is > 25 µM in the test with T-47D breast; 0.0804 µM with OVCAR-3 ovarian; > 25 µM in the test with TK-10 renal; 0.0845 µM with RPMI-8226 leukemia; 0.144 µM with COLO 205 colon; 0.417 µM with U251 CNS. Further, the GI50 in the test on HCT-15 colon was 1.01 µM; in the test on DU-145 prostate, 0.183 µM; with HT29 colon, 0.102 µM; in the test with HCT-116 colon it was 0.381 µM. Moreover, the TGI was > 25 µM in the test with T-47D breast; > 7.19 µM with OVCAR-3 ovarian; > 25 µM in the test on TK-10 renal; > 25 µM with RPMI-8226 leukemia; 5.59 µM in the test on COLO 205 colon; > 25 µM with U251 CNS. Besides, the TGI in the test with HCT-15 colon, with DU-145 prostate, in the test on HT29 colon and in the test on HCT-116 colon was > 25 µM in each case.

In the case of `C=CC(=O)N1CC2(CC(n3nc(-c4ccc5c(cnn5C)c4)c(-c4c(Cl)c(C)cc5[nH]ncc45)c3C)C2)C1`, the GI50 in the test on T-47D breast was 3.97 µM; with OVCAR-3 ovarian, 1.98 µM; with TK-10 renal it was 3.18 µM; with RPMI-8226 leukemia, 2.13 µM; in the test on COLO 205 colon, 2.1 µM; with U251 CNS, 1.89 µM. For the same molecule, the GI50 in the test with HCT-15 colon was 1.54 µM; in the test with DU-145 prostate, 3.11 µM; with HT29 colon it was 3.62 µM; with HCT-116 colon it was 1.83 µM. Further, the TGI in the test with T-47D breast amounted to 19.3 µM; in the test on OVCAR-3 ovarian, 4.18 µM; with TK-10 renal, 12.8 µM; in the test on RPMI-8226 leukemia, 6.72 µM; in the test on COLO 205 colon, 4.17 µM; with U251 CNS, 4.07 µM. For the same molecule, the TGI in the test with HCT-15 colon is 3.05 µM; in the test with DU-145 prostate it was 9.45 µM; in the test with HT29 colon, 29.5 µM; in the test with HCT-116 colon, 3.74 µM.

Consider `COC(=O)C=Cc1ccc2nncnc2c1` (mixture of isomers), for which the TGI in the test on T-47D breast, in the test with OVCAR-3 ovarian, in the test on TK-10 renal, in the test on RPMI-8226 leukemia, with COLO 205 colon and in the test with U251 CNS was > 100 µM throughout. Moreover, the TGI in the test on HCT-15 colon, in the test on DU-145 prostate, in the test on HT29 colon and in the test with HCT-116 colon was > 100 µM each time.

For the molecule `CCOC(=O)COc1ccc2c(C)cc(=O)oc2c1`, the TGI in the test with T-47D breast, with OVCAR-3 ovarian, in the test with RPMI-8226 leukemia, in the test on COLO 205 colon, with U251 CNS and in the test on HCT-15 colon was > 100 µM in each case. The TGI in the test on DU-145 prostate, in the test with HT29 colon and with HCT-116 colon was > 100 µM in each case.

On to `CC[C@H](C)[C@H](NC(=O)[C@H]1CCCCN1C)C(=O)N(C)[C@H](C[C@@H](OC(C)=O)c1nc(C(=O)N[C@@H](Cc2ccccc2)C[C@H](C)C(=O)O)cs1)C(C)C`, for which the GI50 with T-47D breast was > 16.5 µM; in the test on OVCAR-3 ovarian it was 0.000234 µM and < 0.00165 µM; in the test on RPMI-8226 leukemia, 0.000264 µM and 0.00165 µM; with COLO 205 colon it was 0.000394 µM; with U251 CNS, 0.000481 µM and 0.00165 µM; with HCT-15 colon it was 0.00133 µM and 0.00165 µM. Further, the GI50 in the test on DU-145 prostate is 0.000475 µM and 0.00165 µM; with HT29 colon, 0.000356 µM and 0.00165 µM; with HCT-116 colon, 0.000404 µM and 0.00165 µM. The TGI is > 16.5 µM in the test on T-47D breast; 0.0119 µM and < 0.00165 µM with OVCAR-3 ovarian; 6.56 µM in the test with RPMI-8226 leukemia; 0.00275 µM with COLO 205 colon; > 16.5 µM in the test on U251 CNS; > 16.5 µM in the test on HCT-15 colon. The TGI with DU-145 prostate was 0.0367 µM; in the test on HT29 colon, 0.002 µM; in the test on HCT-116 colon, 0.017 µM.

On to `CN(C)C(=S)SCC(=O)Nc1ccccc1`, for which the TGI with T-47D breast, with OVCAR-3 ovarian, in the test with RPMI-8226 leukemia, in the test on COLO 205 colon, in the test with U251 CNS and with HCT-15 colon was > 100 µM each time. Besides, the TGI in the test with DU-145 prostate, with HT29 colon and with HCT-116 colon was > 100 µM each time.
